According to patent publication US8541361B2, “Composition” (DSM IP Assets B.V., priority 2009, dated 2013):
Each block holds one substance with its values, some of them ahead of it. Square brackets hold non-standard residues; d marks the D form. * marks the point of attachment. Palmitoyl = CCCCCCCCCCCCCCCC(=O)*; Dab = NCC[C@H](N)C(=O)O

Experiment: Storage stability: normalized peptide content by analytical HPLC of glycerin/water solutions in glass vials, with or without salt
Format: physicochemical
Conditions: 40° C., glass vial
Experimental: (§1) Solutions of 127 mmol/kg H29C14—NH—CO-Dab-Val-Dab-OH in a Glycerin water mixture (˜2.3:1) containing salt concentrations of 382 mmol/kg have been prepared, distributed to 3 g per 10 ml glass vial and stored at 40° C. and 25° C. After various times, samples have been analyzed for their peptide content with analytical HPLC. The results have been normalized to the content at the preparation time to 100%.
as §1, with “119” for “127”, “Palm-Lys-Val-Lys-OH (SEQ ID NO:2)” for “H29C14—NH—CO-Dab-Val-Dab-OH”, “in” for “in a”, “one or three equivalents as indicated below” for “382 mmol/kg”, “40°” for “40° C. and 25°”
as §1, with “246” for “127”, “Palm-Lys-Val-Dab-OH (SEQ ID NO:5)” for “H29C14—NH—CO-Dab-Val-Dab-OH”, “in” for “in a”, “one or three equivalents as indicated below” for “382 mmol/kg”, “40°” for “40° C. and 25°”

normalized peptide content (3 eq. CaCl2 (382 mmol/kg), t0, 127 mmol/kg peptide in Glycerin water): 100.0%
normalized peptide content (3 eq. CaCl2, 1 Month, 127 mmol/kg peptide in Glycerin water): 92.2%
normalized peptide content (3 eq. CaCl2, 2 Month, 127 mmol/kg peptide in Glycerin water): 96.9%
normalized peptide content (3 eq. CaCl2, 3 Month, 127 mmol/kg peptide in Glycerin water): 101.1%
normalized peptide content (3 eq. CaCl2, 4 Month, 127 mmol/kg peptide in Glycerin water): 95.4%
normalized peptide content (3 eq. CaCl2, 5 Month, 127 mmol/kg peptide in Glycerin water): 89.0%
normalized peptide content (3 eq. CaCl2, 6 Month, 127 mmol/kg peptide in Glycerin water): 88.9%
normalized peptide content (3 eq. LiCl (382 mmol/kg), t0, 127 mmol/kg peptide in Glycerin water): 100.0%
normalized peptide content (3 eq. LiCl, 1 Month, 127 mmol/kg peptide in Glycerin water): 93.1%
normalized peptide content (3 eq. LiCl, 2 Month, 127 mmol/kg peptide in Glycerin water): 95.3%
normalized peptide content (3 eq. LiCl, 3 Month, 127 mmol/kg peptide in Glycerin water): 99.8%
normalized peptide content (3 eq. LiCl, 4 Month, 127 mmol/kg peptide in Glycerin water): 96.4%
normalized peptide content (3 eq. LiCl, 5 Month, 127 mmol/kg peptide in Glycerin water): 90.7%
normalized peptide content (3 eq. LiCl, 6 Month, 127 mmol/kg peptide in Glycerin water): 87.6%
normalized peptide content (3 eq. MgCl2 (382 mmol/kg), t0, 127 mmol/kg peptide in Glycerin water): 100.0%
normalized peptide content (3 eq. MgCl2, 1 Month, 127 mmol/kg peptide in Glycerin water): 93.7%
normalized peptide content (3 eq. MgCl2, 2 Month, 127 mmol/kg peptide in Glycerin water): 96.5%
normalized peptide content (3 eq. MgCl2, 3 Month, 127 mmol/kg peptide in Glycerin water): 100.0%
normalized peptide content (3 eq. MgCl2, 4 Month, 127 mmol/kg peptide in Glycerin water): 94.9%
normalized peptide content (3 eq. MgCl2, 5 Month, 127 mmol/kg peptide in Glycerin water): 89.7%
normalized peptide content (3 eq. MgCl2, 6 Month, 127 mmol/kg peptide in Glycerin water): 90.7%
normalized peptide content (3 eq. ZnCl2 (382 mmol/kg), t0, 127 mmol/kg peptide in Glycerin water): 100.0%
normalized peptide content (3 eq. ZnCl2, 1 Month, 127 mmol/kg peptide in Glycerin water): 88.5%
normalized peptide content (3 eq. ZnCl2, 2 Month, 127 mmol/kg peptide in Glycerin water): 93.5%
normalized peptide content (3 eq. ZnCl2, 3 Month, 127 mmol/kg peptide in Glycerin water): 98.7%
normalized peptide content (3 eq. ZnCl2, 4 Month, 127 mmol/kg peptide in Glycerin water): 96.5%
normalized peptide content (3 eq. ZnCl2, 5 Month, 127 mmol/kg peptide in Glycerin water): 88.1%
normalized peptide content (3 eq. ZnCl2, 6 Month, 127 mmol/kg peptide in Glycerin water): 92.3%
normalized peptide content (No salt, 1 Month, 127 mmol/kg peptide in Glycerin water): 106.2%
normalized peptide content (No salt, 2 Month, 127 mmol/kg peptide in Glycerin water): 91.7%
normalized peptide content (No salt, 3 Month, 127 mmol/kg peptide in Glycerin water): 18.9%
normalized peptide content (No salt, 4 Month, 127 mmol/kg peptide in Glycerin water): 11.5%
normalized peptide content (No salt, 5 Month, 127 mmol/kg peptide in Glycerin water): 10.1%
normalized peptide content (No salt, t0, 127 mmol/kg peptide in Glycerin water (~2.3:1)): 100.0%
Substance: H29C14—NH—CO-Dab-Val-Dab-OH

Substance: Palm-Lys-Val-Dab-OH (Palmitoyl-Lys-Val-[Dab]-OH; SMILES CCCCCCCCCCCCCCCC(=O)N[C@@H](CCCCN)C(=O)N[C@H](C(=O)N[C@@H](CCN)C(=O)O)C(C)C) [peptide substituted with a lipophilic moiety; Palm means palmitoyl and Dab means 2,4-diaminobutyroyl]
normalized peptide content (1 eq MgCl2, 1 Month, 246 mmol/kg peptide in Glycerin water): 71.7%
normalized peptide content (1 eq MgCl2, t0, 246 mmol/kg peptide in Glycerin water): 100.0%
normalized peptide content (3 eq LiCl, 1 Month, 246 mmol/kg peptide in Glycerin water): 75.9%
normalized peptide content (3 eq LiCl, t0, 246 mmol/kg peptide in Glycerin water): 100.0%
normalized peptide content (3 eq MgCl2, 1 Month, 246 mmol/kg peptide in Glycerin water): 70.5%
normalized peptide content (3 eq MgCl2, t0, 246 mmol/kg peptide in Glycerin water): 100.0%
normalized peptide content (3 eq NaCl, 1 Month, 246 mmol/kg peptide in Glycerin water): 75.7%
normalized peptide content (3 eq NaCl, t0, 246 mmol/kg peptide in Glycerin water): 100.0%
normalized peptide content (No salt, 1 Month, 246 mmol/kg peptide in Glycerin water): 44.2%
normalized peptide content (No salt, t0, 246 mmol/kg peptide in Glycerin water (~2.3:1)): 100.0%

Substance: Palm-Lys-Val-Lys-OH (Palmitoyl-Lys-Val-Lys-OH; SMILES CCCCCCCCCCCCCCCC(=O)N[C@@H](CCCCN)C(=O)N[C@H](C(=O)N[C@@H](CCCCN)C(=O)O)C(C)C) [peptide substituted with a lipophilic moiety; Palm means palmitoyl]
normalized peptide content (1 eq MgCl2, 1 Month, 119 mmol/kg peptide in Glycerin water): 81.4%
normalized peptide content (1 eq MgCl2, t0, 119 mmol/kg peptide in Glycerin water): 100.0%
normalized peptide content (3 eq LiCl, 1 Month, 119 mmol/kg peptide in Glycerin water): 83.6%
normalized peptide content (3 eq LiCl, t0, 119 mmol/kg peptide in Glycerin water): 100.0%
normalized peptide content (3 eq MgCl2, 1 Month, 119 mmol/kg peptide in Glycerin water): 87.4%
normalized peptide content (3 eq MgCl2, t0, 119 mmol/kg peptide in Glycerin water): 100.0%
normalized peptide content (3 eq NaCl, 1 Month, 119 mmol/kg peptide in Glycerin water): 82.0%
normalized peptide content (3 eq NaCl, t0, 119 mmol/kg peptide in Glycerin water): 100.0%
normalized peptide content (No salt, 1 Month, 119 mmol/kg peptide in Glycerin water): 76.4%
normalized peptide content (No salt, t0, 119 mmol/kg peptide in Glycerin water (~2.3:1)): 100.0%
